Test results reported in ChEMBL document CHEMBL1131422, “N-(2-Benzoylphenyl)-L-tyrosine PPARgamma agonists. 1. Discovery of a novel series of potent antihyperglycemic and antihyperlipidemic agents” (J Med Chem, 1998).
Calls of active or inactive are those of the source. The calls are words filed in the database; no cut-off is given here.

Assays:
Mus musculus [1] = species: Mus musculus; test: Compound was tested for Antihyperlipidemic activity, activity is expressed as percent reduction of NEFAs; type: functional
Mus musculus [2] = species: Mus musculus; test: Compound was tested for Antihyperlipidemic activity, activity is expressed as percent reduction of Triglycerides; type: functional
Mus musculus [3] = test: Compound was tested in vivo for Antihyperglycemic activity in mice, activity is expressed as percent reduction of plasma glucose.; type: functional
[4] = target: T1, Peroxisome proliferator-activated receptor delta (Mus musculus) (UniProt P35396); test: Compound was tested functionally in vitro for inducing 50% of the maximum alkaline phosphatase activity (Transactivation) against murine Peroxisome proliferator activated receptor delta using transfection assay in CV-1 cells; IA = Inactive at 10e-4 M; type: functional, cell-based
T1 sequence (whole entry): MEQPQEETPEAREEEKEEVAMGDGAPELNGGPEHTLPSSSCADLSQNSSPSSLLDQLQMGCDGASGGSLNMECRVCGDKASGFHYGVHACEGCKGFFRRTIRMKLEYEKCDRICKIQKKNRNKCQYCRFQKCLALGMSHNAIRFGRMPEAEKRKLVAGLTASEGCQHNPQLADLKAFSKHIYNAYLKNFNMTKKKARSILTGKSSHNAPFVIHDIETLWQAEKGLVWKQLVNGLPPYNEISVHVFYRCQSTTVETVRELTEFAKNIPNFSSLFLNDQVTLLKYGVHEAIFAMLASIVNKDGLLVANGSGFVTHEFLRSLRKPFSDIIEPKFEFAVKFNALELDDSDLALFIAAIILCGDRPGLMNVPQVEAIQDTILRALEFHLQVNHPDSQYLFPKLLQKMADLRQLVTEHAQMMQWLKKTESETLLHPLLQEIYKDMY

[5] = target: T2, Peroxisome proliferator-activated receptor alpha (Mus musculus) (UniProt P23204); test: Compound was tested functionally in vitro for inducing 50% of the maximum alkaline phosphatase activity (Transactivation) against murine Peroxisome proliferator activated receptor alpha using transfection assay in CV-1 cells; IA = Inactive at 10e-4 M; type: functional, cell-based
T2 sequence (whole entry): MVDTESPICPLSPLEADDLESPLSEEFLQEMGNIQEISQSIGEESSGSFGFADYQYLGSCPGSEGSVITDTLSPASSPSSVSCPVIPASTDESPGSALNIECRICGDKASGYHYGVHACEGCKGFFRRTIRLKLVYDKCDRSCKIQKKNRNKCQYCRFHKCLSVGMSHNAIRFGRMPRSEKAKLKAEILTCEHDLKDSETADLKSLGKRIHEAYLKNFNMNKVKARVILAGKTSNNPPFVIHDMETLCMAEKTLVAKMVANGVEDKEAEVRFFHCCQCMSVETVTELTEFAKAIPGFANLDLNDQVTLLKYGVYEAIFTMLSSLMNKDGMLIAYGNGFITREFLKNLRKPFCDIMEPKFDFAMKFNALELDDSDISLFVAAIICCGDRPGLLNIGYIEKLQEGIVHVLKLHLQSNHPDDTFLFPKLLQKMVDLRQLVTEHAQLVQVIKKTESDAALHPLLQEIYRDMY

Rattus norvegicus [6] = test: Compound was tested in vivo for Antihyperglycemic activity in Zucker Diabetic fatty rats, activity is expressed as percent reduction of plasma glucose; type: functional
Rattus norvegicus [7] = species: Rattus norvegicus; test: Compound was tested for Antihyperlipidemic activity in Zucker Diabetic fatty rats, activity is expressed as percent reduction of NEFAs; type: functional
Rattus norvegicus [8] = species: Rattus norvegicus; test: Compound was tested for Antihyperlipidemic activity in Zucker Diabetic fatty rats, activity is expressed as percent reduction of Triglycerides; type: functional
Rattus norvegicus [9] = test: Compound was tested in vivo for Antihyperglycemic activity in Zucker Diabetic fatty rats, activity is expressed as percent reduction of HbA1C.; type: functional
[10] = target: T3, Peroxisome proliferator-activated receptor delta (Homo sapiens) (UniProt Q03181); conditions: CV-1; 10e-4 M
T3 sequence (whole entry): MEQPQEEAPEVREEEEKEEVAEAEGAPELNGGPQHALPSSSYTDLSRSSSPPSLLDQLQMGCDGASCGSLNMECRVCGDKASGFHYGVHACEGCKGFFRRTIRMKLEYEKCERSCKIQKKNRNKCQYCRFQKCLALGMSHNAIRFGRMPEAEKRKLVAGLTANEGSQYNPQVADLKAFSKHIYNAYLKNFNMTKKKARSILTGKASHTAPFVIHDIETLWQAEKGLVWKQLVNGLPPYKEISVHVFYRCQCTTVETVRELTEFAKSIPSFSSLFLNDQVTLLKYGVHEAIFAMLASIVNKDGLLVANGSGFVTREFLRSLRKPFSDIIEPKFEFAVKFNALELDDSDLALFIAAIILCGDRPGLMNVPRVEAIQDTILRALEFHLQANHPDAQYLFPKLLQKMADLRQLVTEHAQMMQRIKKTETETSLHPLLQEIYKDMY
Description: Compound was tested functionally in vitro for inducing 50% of the maximum alkaline phosphatase activity (Transactivation) against human Peroxisome proliferator activated receptor delta using transfection assay in CV-1 cells; IA = Inactive at 10e-4 M

Mus musculus [11] = species: Mus musculus; test: Compound was tested for Antihyperlipidemic activity, activity is expressed as percent increase of body weight
[12] = target: T4, Peroxisome proliferator-activated receptor gamma (Homo sapiens, UniProt P37231)
T4 sequence (P37231 whole entry): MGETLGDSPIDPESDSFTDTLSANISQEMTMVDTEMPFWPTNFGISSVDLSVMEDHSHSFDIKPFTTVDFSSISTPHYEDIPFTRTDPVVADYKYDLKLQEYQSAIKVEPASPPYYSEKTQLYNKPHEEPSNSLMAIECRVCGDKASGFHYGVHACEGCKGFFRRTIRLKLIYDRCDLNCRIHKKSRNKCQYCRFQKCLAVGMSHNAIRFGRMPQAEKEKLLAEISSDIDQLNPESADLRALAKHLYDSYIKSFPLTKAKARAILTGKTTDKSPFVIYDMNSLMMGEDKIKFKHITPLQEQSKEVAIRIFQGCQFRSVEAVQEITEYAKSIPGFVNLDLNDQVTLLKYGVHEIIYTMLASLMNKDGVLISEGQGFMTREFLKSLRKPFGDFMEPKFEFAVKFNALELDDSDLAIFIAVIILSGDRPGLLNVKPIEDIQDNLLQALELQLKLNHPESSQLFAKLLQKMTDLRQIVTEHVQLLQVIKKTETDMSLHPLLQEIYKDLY
Description: Activation of peroxisome proliferator activated receptor gamma measured by induction of 50% of maximum alkaline phosphatase activity, transfection assay in CV-1 cells

[13] = target: T4, Peroxisome proliferator-activated receptor gamma; remark: listed apart in the source
Description: In vitro binding to peroxisome proliferator activated receptor gamma (PPAR gamma) using [3H]-BRL 49653 as radioligand in scintillation proximity assay (SPA)

[14] = target: T5, Peroxisome proliferator-activated receptor gamma (Homo sapiens) (UniProt P37231); test: Compound was tested functionally in vitro for inducing 50% of the maximum alkaline phosphatase activity (Transactivation) against Peroxisome proliferator activated receptor gamma using transfection assay in CV-1 cells; IA = Inactive at 10e-4 M; type: functional, cell-based
T5 sequence (whole entry): T4 sequence (P37231 whole entry)

[15] = target: T5, Peroxisome proliferator-activated receptor gamma (Homo sapiens); conditions: 10e-4 M
Description: Compound was tested for its ability to promote differentiation of C3H10T1/2 stem cells to adipocytes using lipogenesis assay mediated through activation of Peroxisome proliferator activated receptor gamma; IA = Inactive at 10e-4 M

Structure (SMILES)	EC50 [12] [nM]	Ki [13] [nM]	other results
Cc1oc(-c2ccccc2)nc1CCOc1ccc(C[C@H](Nc2ccccc2C(=O)c2ccccc2)C(=O)O)cc1 [FARGLITAZAR]			Reduction (Mus musculus [1]): 56%; Reduction (Mus musculus [2]): 54%; Reduction (Mus musculus [3]): 65%; Log EC50 [4]: inactive; Log EC50 [5]: inactive; Reduction (Rattus norvegicus [6]): 65%; Reduction (Rattus norvegicus [7]): 75%; Reduction (Rattus norvegicus [8]): 77%; Reduction (Rattus norvegicus [9]): 33%; Log EC50 [10]: inactive; body weight increase % (Mus musculus [11]): 17%
CN(CCOc1ccc(CC(Nc2ccccc2C(=O)Cc2ccccc2)C(=O)O)cc1)c1nc2ccccc2o1 (stereo not given)	28.8	3.31	
CN(CCOc1ccc(CC(Nc2ccccc2C(O)c2ccccc2)C(=O)O)cc1)c1ccccn1 (stereo not given)	447		
Cc1c(C)c2c(c(C)c1O)CCC(C)(COc1ccc(C[C@H](Nc3ccccc3C(=O)c3ccccc3)C(=O)O)cc1)O2 (stereo not given in full)	9.12	5.25	
CC(/C=C(\O)c1ccccc1)=N\[C@@H](Cc1ccc(OCc2ccccc2)cc1)C(=O)O (stereo in doubt)	21900	> 3160	
COC(=O)[C@H](Cc1ccc(OCc2ccccc2)cc1)/N=C(C)/C=C(\O)c1ccccc1	692	759	
N[C@@H](Cc1ccc(OCc2ccccc2)cc1)C(=O)O	2510	> 3160	
CC(/C=C(\O)c1ccccc1)=N\[C@@H](Cc1ccc(OCc2ccccc2)cc1)C(=O)O (stereo in doubt; 2)	229	11.7	
CCc1ccc(CCOc2ccc(C[C@H](Nc3ccccc3C(=O)c3ccccc3)C(=O)O)cc2)nc1	50.1	6.46	
O=C(O)[C@H](Cc1ccc(OCc2ccccc2)cc1)/N=C1\CCCC\C1=C(\O)c1ccccc1	10200	794	
COC(=O)[C@H](Cc1ccc(OCc2ccccc2)cc1)Nc1ccccc1C(=O)Nc1ccccc1		> 3160	Log EC50 [14]: inactive
O=C(O)[C@H](Cc1ccc(OCc2ccccc2)cc1)Nc1ccccc1Cc1ccccc1		> 3160	Log EC50 [14]: inactive
CN(CCOc1ccc(CC(Oc2ccccc2C(=O)c2ccccc2)C(=O)O)cc1)c1nc2ccccc2o1 (stereo not given)	933	32.4	
CN(CCOc1ccc(CC(Nc2cccc3c2C(=O)c2ccccc2-3)C(=O)O)cc1)c1nc2ccccc2o1 (stereo not given)	490	85.1	
CN(CCOc1ccc(CC(Sc2ccccc2C(=O)c2ccccc2)C(=O)O)cc1)c1nc2ccccc2o1 (stereo not given)	1380	33.1	
CN(CCOc1ccc(CC(Nc2ccccc2/C(=N/N)c2ccccc2)C(=O)O)cc1)c1ccccn1 (stereo not given)	851	162	
CC1(COc2ccc(C[C@H](Nc3ccccc3C(=O)c3ccccc3)C(=O)O)cc2)CCCCC1	617	51.3	
COC(=O)[C@H](Cc1ccc(OCc2ccccc2)cc1)/N=C(\C)C1=C(O)c2ccccc2CC1		> 3160	Log EC50 [14]: inactive
O=C(c1ccccc1)c1ccc(N[C@@H](Cc2ccc(OCc3ccccc3)cc2)C(=O)O)cc1		1260	Log EC50 [14]: inactive
O=C(c1ccccc1)c1ccccc1N[C@@H](Cc1ccc(OCc2ccccc2)cc1)C(=O)O	16600	162	
C/C(O)=C/C(C)=N/[C@@H](Cc1ccc(OCc2ccccc2)cc1)C(=O)O		1950	Log EC50 [14]: inactive
Cc1oc(-c2ccccc2)nc1CCOc1ccc(CC2SC(=O)NC2=O)cc1 (stereo not given)	3.16	4.27	
COC(=O)[C@H](Cc1ccc(OCc2ccccc2)cc1)Nc1ccccc1C(=O)OCc1ccccc1		> 3160	Log EC50 [14]: inactive
CN(CCOc1ccc(CC(Nc2cccc3c2C(=O)c2ccccc2C3=O)C(=O)O)cc1)c1nc2ccccc2o1 (stereo not given)	5.01	5.13	Log EC50 [15]: inactive
CN(CCOc1ccc(CC(Nc2ccccc2S(=O)(=O)c2ccccc2)C(=O)O)cc1)c1nc2ccccc2o1 (stereo not given)	1820	123	
CC(/C=C(\O)c1ccccc1)=N\[C@@H](Cc1ccc(OCc2ccccc2)cc1)C(N)=O	490	1320	
CN(CCOc1ccc(CC(Nc2ccccc2Oc2ccccc2)C(=O)O)cc1)c1nc2ccccc2o1 (stereo not given)	107	3.72	
O=C(c1ccccc1)c1cccc(N[C@@H](Cc2ccc(OCc3ccccc3)cc2)C(=O)O)c1		> 3160	Log EC50 [14]: inactive
